“And” between values parts separate entries of the source, which are not always exact repeats. Equal entries are not always repeated. “Also recorded” adds a separate entry of the source. Where two headings read alike, the source gives them in different places.
How the values were obtained:
[1] = Body weight of Ba/F3-CD74-ROS1-WT xenograft mice; format: in vivo, mouse
SRPK1 = biological target: T1, SRPK1 (Homo sapiens, UniProt Q96SB4); assay: Kinase assay, ATP Km; format: biochemical
T1 construct: purchased Carna Biosciences
T1 sequence (Q96SB4 whole entry): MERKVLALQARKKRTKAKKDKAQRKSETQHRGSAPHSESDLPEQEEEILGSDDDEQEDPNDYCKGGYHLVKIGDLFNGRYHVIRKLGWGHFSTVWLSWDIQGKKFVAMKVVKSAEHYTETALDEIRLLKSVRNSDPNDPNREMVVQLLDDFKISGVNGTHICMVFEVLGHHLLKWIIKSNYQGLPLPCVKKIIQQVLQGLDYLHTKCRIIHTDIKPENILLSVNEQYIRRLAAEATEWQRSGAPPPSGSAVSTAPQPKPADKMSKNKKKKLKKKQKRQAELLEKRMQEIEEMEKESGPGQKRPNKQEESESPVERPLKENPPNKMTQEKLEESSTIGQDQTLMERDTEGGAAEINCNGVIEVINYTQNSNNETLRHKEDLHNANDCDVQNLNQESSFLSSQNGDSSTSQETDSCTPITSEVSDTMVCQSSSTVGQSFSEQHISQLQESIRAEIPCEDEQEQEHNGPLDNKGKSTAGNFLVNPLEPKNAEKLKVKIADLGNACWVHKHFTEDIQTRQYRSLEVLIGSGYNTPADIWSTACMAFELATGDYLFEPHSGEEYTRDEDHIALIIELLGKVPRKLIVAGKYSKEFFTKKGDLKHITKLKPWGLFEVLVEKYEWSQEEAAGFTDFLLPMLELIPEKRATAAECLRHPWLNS

MNK2 = biological target: T2, MNK2 (Homo sapiens, UniProt Q9HBH9); assay: Kinase assay, ATP Km; format: biochemical
T2 construct: purchased Carna Biosciences

LYNb = biological target: T3, LYNb (Homo sapiens, UniProt P07948); assay: Kinase assay, ATP Km; format: biochemical
T3 construct: purchased Carna Biosciences
T3 sequence (P07948 1-491 isoform P07948-2): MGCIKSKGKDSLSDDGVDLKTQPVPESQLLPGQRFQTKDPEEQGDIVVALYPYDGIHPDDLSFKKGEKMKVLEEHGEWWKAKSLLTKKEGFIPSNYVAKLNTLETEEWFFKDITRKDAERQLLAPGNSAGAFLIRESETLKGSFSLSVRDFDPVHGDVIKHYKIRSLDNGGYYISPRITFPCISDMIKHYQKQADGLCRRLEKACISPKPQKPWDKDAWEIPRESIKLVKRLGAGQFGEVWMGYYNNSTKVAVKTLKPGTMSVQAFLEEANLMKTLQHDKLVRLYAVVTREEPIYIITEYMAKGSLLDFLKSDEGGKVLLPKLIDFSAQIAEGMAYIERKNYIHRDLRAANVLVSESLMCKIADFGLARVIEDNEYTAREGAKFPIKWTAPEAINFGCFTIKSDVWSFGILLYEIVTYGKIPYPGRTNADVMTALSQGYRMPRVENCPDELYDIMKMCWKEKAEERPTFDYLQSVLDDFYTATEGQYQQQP

PAK2 = biological target: T4, PAK2 (Homo sapiens, UniProt Q13177); assay: Kinase assay, ATP Km; format: biochemical
T4 construct: purchased Carna Biosciences

[2] = Body weight of CTG-0848 PDX mice; format: in vivo, mouse; set-up: Body weight change (Supp Figure S5b), group average: unit not given here
[3] = system: Ba/F3-CD74-ROS1 L1951R cells; assay: CellTiter-Glo cell viability assay; format: cell-based, murine; conditions: for IC50: 72 h
CLK1 = CLK1 (Homo sapiens, UniProt P49759); assay: Kinase assay, ATP Km; format: biochemical
Sequence of CLK1 (P49759 whole entry): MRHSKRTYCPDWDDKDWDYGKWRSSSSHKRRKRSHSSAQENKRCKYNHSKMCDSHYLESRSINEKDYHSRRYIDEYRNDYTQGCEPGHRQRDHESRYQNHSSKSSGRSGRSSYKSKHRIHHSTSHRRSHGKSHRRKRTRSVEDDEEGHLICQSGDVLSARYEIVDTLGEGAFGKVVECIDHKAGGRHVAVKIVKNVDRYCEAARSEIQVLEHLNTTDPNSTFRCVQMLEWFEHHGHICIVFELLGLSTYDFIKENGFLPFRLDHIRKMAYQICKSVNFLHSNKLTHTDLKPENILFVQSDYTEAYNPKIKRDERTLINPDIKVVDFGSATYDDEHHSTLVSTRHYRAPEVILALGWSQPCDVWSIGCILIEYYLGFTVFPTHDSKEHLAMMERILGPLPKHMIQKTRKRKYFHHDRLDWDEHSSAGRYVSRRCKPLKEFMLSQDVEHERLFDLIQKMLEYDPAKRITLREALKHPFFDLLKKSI

QIK = QIK (Homo sapiens, UniProt Q9H0K1); assay: Kinase assay, ATP Km; format: biochemical
MARK1 = MARK1 (Homo sapiens, UniProt Q9P0L2); assay: Kinase assay, ATP Km; format: biochemical
Sequence of MARK1 (Q9P0L2 whole entry): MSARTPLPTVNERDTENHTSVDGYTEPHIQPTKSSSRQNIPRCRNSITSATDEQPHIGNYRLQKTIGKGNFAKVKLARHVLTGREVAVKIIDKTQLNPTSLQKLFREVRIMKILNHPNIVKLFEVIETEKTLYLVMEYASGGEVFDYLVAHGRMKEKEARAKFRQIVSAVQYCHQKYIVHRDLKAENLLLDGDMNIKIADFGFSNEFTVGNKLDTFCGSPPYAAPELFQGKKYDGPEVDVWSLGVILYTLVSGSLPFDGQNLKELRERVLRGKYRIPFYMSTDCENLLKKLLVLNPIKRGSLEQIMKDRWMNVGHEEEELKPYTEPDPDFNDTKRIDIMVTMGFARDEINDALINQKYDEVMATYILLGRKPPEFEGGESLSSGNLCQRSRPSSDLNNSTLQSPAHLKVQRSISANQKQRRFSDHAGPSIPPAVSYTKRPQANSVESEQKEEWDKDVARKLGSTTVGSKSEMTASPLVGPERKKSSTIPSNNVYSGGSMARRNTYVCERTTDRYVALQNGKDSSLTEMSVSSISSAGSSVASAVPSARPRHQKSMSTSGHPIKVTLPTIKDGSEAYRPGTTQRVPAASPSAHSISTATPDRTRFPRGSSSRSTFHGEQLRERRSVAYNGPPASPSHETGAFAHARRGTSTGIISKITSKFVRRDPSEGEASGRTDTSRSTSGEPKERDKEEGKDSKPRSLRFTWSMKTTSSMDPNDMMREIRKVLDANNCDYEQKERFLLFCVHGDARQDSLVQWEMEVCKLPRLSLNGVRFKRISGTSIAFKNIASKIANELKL

AurA = AurA (Homo sapiens, UniProt O14965); assay: Kinase assay, ATP Km; format: biochemical
Sequence of AurA (O14965 whole entry): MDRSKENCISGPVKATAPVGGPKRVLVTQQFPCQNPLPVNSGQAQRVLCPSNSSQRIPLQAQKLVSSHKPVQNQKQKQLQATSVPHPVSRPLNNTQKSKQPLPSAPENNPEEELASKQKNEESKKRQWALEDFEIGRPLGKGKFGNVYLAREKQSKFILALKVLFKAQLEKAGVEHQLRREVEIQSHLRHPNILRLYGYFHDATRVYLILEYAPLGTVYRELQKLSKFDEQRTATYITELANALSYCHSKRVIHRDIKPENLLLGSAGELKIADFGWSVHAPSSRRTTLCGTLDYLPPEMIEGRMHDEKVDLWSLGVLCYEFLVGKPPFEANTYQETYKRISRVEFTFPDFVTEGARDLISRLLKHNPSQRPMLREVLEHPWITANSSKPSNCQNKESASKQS

NTRK1 = biological target: T5, NTRK1 (Homo sapiens, UniProt P04629); assay: Kinase assay, 1 mM ATP; format: biochemical
T5 construct: purchased Carna Biosciences, Inc. (Kobe, Japan)
T5 sequence (P04629 33-796): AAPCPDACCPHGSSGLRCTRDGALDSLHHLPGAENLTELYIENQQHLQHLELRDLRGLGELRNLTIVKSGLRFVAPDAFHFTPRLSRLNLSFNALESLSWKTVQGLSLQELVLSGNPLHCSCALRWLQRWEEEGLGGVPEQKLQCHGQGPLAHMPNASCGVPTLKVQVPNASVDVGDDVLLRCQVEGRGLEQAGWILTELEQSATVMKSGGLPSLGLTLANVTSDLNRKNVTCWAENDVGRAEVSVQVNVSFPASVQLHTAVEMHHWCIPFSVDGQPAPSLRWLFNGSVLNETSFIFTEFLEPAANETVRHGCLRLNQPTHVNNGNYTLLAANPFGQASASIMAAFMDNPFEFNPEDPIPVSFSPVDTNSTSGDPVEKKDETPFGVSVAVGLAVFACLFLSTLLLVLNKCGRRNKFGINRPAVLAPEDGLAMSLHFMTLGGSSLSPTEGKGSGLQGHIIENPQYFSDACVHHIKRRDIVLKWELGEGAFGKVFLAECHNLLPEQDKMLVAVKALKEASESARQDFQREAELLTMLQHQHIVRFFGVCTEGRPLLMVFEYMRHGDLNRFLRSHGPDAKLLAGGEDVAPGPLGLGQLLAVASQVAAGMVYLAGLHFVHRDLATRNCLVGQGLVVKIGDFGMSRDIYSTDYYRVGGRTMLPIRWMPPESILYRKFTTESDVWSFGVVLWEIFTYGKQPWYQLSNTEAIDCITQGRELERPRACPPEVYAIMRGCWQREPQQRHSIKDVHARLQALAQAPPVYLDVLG

[4] = system: EML4-ALK G1269A induced Ba/F3 cells; assay: CellTiter-Glo cell viability assay; format: cell-based, murine; conditions: Mus musculus, BaF3, 72 h; read-out: IC50
MELK = biological target: T6, MELK (Homo sapiens, UniProt Q14680); assay: Kinase assay, ATP Km; format: biochemical
T6 construct: purchased Carna Biosciences
T6 sequence (Q14680 whole entry): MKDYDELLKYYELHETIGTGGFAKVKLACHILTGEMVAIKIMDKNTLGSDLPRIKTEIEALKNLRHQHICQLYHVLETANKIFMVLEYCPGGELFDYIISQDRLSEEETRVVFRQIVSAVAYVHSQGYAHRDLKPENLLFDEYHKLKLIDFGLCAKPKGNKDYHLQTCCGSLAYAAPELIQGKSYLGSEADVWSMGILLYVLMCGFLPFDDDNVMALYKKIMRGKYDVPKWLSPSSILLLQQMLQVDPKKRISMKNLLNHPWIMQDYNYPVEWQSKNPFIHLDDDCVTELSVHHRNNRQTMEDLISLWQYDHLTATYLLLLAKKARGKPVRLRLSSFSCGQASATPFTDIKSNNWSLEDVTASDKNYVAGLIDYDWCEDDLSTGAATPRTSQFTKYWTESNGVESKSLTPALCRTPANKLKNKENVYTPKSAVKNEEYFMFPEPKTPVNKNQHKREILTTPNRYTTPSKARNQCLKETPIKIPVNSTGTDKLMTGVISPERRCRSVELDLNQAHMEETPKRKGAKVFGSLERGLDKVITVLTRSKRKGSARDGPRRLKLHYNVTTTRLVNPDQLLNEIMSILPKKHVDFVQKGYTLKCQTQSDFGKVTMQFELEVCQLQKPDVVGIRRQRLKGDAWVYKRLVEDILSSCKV

NTRK3 = biological target: T7, NTRK3 (Homo sapiens, UniProt Q16288); assay: Kinase assay, 1 mM ATP; format: biochemical
T7 construct: purchased Carna Biosciences, Inc. (Kobe, Japan)
T7 sequence (Q16288 32-839): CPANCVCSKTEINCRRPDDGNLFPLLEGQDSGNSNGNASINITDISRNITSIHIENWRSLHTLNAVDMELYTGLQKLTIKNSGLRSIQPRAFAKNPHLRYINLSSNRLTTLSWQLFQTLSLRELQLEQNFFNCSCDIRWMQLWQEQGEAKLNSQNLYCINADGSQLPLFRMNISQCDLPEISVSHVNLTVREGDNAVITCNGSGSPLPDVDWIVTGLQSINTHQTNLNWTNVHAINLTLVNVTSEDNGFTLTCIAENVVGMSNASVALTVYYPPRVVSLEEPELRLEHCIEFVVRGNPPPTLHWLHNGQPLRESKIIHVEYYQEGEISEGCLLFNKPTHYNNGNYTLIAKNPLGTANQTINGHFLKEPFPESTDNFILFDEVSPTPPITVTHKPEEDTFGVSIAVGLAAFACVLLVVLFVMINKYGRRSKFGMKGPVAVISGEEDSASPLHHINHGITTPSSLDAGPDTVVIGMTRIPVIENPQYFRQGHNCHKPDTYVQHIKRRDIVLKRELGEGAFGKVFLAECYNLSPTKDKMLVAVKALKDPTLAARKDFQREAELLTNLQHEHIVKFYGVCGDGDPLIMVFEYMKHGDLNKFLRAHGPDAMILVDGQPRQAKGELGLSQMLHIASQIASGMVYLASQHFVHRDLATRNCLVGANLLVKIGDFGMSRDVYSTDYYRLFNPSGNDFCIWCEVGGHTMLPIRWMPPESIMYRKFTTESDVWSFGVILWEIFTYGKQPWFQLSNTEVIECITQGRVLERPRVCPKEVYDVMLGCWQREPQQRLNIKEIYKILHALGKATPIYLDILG

## C[C@@H](N)COc1ccc(-c2cnc3ccc(N[C@H](C)c4cccc(F)c4)nn23)cc1.O=C(O)CCCCC(=O)O [DS-6051b]
[1]; DS-6051b 100 mg/kg po, day 3, individual animals
  Body Weight Change(%) (individual): -2.5% and -2.7% and -6.7% and -2.8% and -0.5%
[1]; DS-6051b 100 mg/kg po, day 4, average, N 6
  Body Weight Change(%) (average / SD): -2.2%
[1]; DS-6051b 100 mg/kg po, day 4, individual animals
  Body Weight Change(%) (individual): -3.4% and -2% and -2.7% and -4% and -2.3% and 1.5%
[1]; ≥30 mg/kg
  Body weight loss: without severe body weight loss
SRPK1
  inhibition at 0.04 µM: -0.0643%
MNK2
  inhibition at 0.04 µM: 4.2%
LYNb
  inhibition at 0.04 µM: 52.5%
PAK2
  inhibition at 0.04 µM: 4.9%
[2]; DS-6051b 10 mg/kg, day 0
  Body weight change (Supp Figure S5b), group average: 0.0
[2]; DS-6051b 10 mg/kg, day 4
  Body weight change (Supp Figure S5b), group average: 1.0
[2]; DS-6051b 10 mg/kg, day 7
  Body weight change (Supp Figure S5b), group average: -0.4
[2]; DS-6051b 10 mg/kg, day 11
  Body weight change (Supp Figure S5b), group average: 0.9
[2]; DS-6051b 10 mg/kg, day 14
  Body weight change (Supp Figure S5b), group average: -0.56
[2]; DS-6051b 10 mg/kg, day 18
  Body weight change (Supp Figure S5b), group average: 1.2
[2]; DS-6051b 10 mg/kg, day 21
  Body weight change (Supp Figure S5b), group average: 0.7
[2]; DS-6051b 10 mg/kg, day 26
  Body weight change (Supp Figure S5b), group average: 1.2
[2]; DS-6051b 10 mg/kg, day 28
  Body weight change (Supp Figure S5b), group average: 7.1
[2]; DS-6051b 30 mg/kg, day 0
  Body weight change (Supp Figure S5b), group average: 0.0
[2]; DS-6051b 30 mg/kg, day 4
  Body weight change (Supp Figure S5b), group average: 1.8
[2]; DS-6051b 30 mg/kg, day 7
  Body weight change (Supp Figure S5b), group average: -0.32
[2]; DS-6051b 30 mg/kg, day 11
  Body weight change (Supp Figure S5b), group average: 0.8
[2]; DS-6051b 30 mg/kg, day 14
  Body weight change (Supp Figure S5b), group average: -0.5
[2]; DS-6051b 30 mg/kg, day 18
  Body weight change (Supp Figure S5b), group average: 1.7
[2]; DS-6051b 30 mg/kg, day 21
  Body weight change (Supp Figure S5b), group average: 2.2
[2]; DS-6051b 30 mg/kg, day 26
  Body weight change (Supp Figure S5b), group average: -0.07
[2]; DS-6051b 30 mg/kg, day 28
  Body weight change (Supp Figure S5b), group average: 5.1
[2]; DS-6051b 100 mg/kg, day 0
  Body weight change (Supp Figure S5b), group average: 0.0
[2]; DS-6051b 100 mg/kg, day 4
  Body weight change (Supp Figure S5b), group average: 0.53
[2]; DS-6051b 100 mg/kg, day 7
  Body weight change (Supp Figure S5b), group average: 0.23
[2]; DS-6051b 100 mg/kg, day 11
  Body weight change (Supp Figure S5b), group average: 1.6
[2]; DS-6051b 100 mg/kg, day 14
  Body weight change (Supp Figure S5b), group average: 0.18
[2]; DS-6051b 100 mg/kg, day 18
  Body weight change (Supp Figure S5b), group average: 4.3
[2]; DS-6051b 100 mg/kg, day 21
  Body weight change (Supp Figure S5b), group average: 2.5
[2]; DS-6051b 100 mg/kg, day 26
  Body weight change (Supp Figure S5b), group average: 0.66
[2]; DS-6051b 100 mg/kg, day 28
  Body weight change (Supp Figure S5b), group average: 4.5
[2]; ≥10 mg/kg
  Body weight loss: without significant body weight loss
[3]
  IC50: effectively inhibited the growth; also recorded: single-digit nanomolar
[3]; Mus musculus, read-out: IC50
  IC50: 4.2 nM
[3]; Mus musculus, source data sheet
  GI50: 4.1 nM
CLK1
  inhibition at 0.04 µM: 1.1%
QIK
  inhibition at 0.04 µM: 20.2%
MARK1
  inhibition at 0.04 µM: 16.8%
AurA
  inhibition at 0.04 µM: 8.5%
NTRK1; 0.2μM, 1 mM ATP
  inhibition at 0.2 µM: 100%
NTRK1; ATP: 1 mM
  IC50: 3.01 nM
[4]
  IC50: 314 nM
MELK
  inhibition at 0.04 µM: -2.2%
NTRK3; 0.2μM, 1 mM ATP
  inhibition at 0.2 µM: 95.8%
NTRK3; ATP: 1 mM
  IC50: 9.28 nM

— publication PMC6688997 (Nature Communications, 2019)
